From article PMC5215778, “Molecular Characterization of N-glycan Degradation and Transport in Streptococcus pneumoniae and Its Contribution to Virulence” (PLoS Pathogens, 2017)

Experiments:
[1] = molecular target: T1, SpGH92 (Streptococcus pneumoniae, UniProt A0A0H2US35); test: X-ray crystal structure, […] Å; assay type: binding; settings: crystal soaked with α-(1,2)-mannobiose; mannose in +1 subsite, Ca2+ and glycerol bound
T1 construct: gene SP_2145

[2] = molecular target: T1, SpGH92; test: UPLC-MS; assay type: biochemical; settings: 10 mM MOPS pH 7.0, 2 mM CaCl2, room temperature, 16 h, 0.6 μM substrate, 1 μM enzyme
[3] = molecular target: T2, NgtS (Streptococcus pneumoniae, UniProt A0A0H2UMY0); test: ITC; settings: 20 mM Tris, pH 8.0, 25 °C; 1:1 binding
T2 construct: gene SP_0092; residues 25-491, secretion signal peptide and lipobox removed, C-terminal six-histidine tag, expressed in E. coli BL21 Star (DE3)

[4] = molecular target: T2, NgtS; test: UV difference titration; settings: read-out: affinity constant; bimolecular binding model with ligand depletion
[5] = molecular target: the molecule itself; test: crystal structure; crystals grown in 2.25 M (NH4)2SO4, 0.1 M Bis-Tris pH 5.5, soaked with α-(1,2)-mannobiose; four molecules in the asymmetric unit

T2 sequence (A0A0H2UMY0 25-491): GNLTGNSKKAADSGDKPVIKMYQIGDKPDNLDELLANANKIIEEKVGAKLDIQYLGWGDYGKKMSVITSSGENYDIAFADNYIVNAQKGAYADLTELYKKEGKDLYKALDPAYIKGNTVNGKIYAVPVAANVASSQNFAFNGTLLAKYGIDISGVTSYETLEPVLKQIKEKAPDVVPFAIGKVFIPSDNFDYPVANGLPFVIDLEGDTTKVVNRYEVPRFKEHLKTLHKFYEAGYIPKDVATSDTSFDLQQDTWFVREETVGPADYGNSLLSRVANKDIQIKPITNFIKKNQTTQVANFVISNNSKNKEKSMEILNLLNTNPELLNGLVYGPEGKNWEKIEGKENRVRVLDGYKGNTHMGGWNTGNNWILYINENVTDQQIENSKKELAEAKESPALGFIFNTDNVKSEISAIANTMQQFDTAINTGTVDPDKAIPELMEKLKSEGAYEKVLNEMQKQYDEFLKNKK

OC[C@H]1OC(O)[C@@H](O)[C@@H](O)[C@@H]1O (some centres unmarked) [mannose]
X-ray crystal structure, 2.15 Å [1]: electron density consistent with a single mannose residue, resulting from the hydrolysis

CC(=O)N[C@H]1[C@H](O[C@H]2[C@H](O)[C@@H](NC(C)=O)C(O)O[C@@H]2CO)O[C@H](CO)[C@@H](O[C@@H]2O[C@H](CO[C@H]3O[C@H](CO[C@H]4O[C@H](CO)[C@@H](O)[C@H](O)[C@@H]4O[C@H]4O[C@H](CO)[C@@H](O)[C@H](O)[C@@H]4O)[C@@H](O)[C@H](O[C@H]4O[C@H](CO)[C@@H](O)[C@H](O)[C@@H]4O[C@H]4O[C@H](CO)[C@@H](O)[C@H](O)[C@@H]4O)[C@@H]3O)[C@@H](O)[C@H](O[C@H]3O[C@H](CO)[C@@H](O)[C@H](O)[C@@H]3O[C@H]3O[C@H](CO)[C@@H](O)[C@H](O)[C@@H]3O[C@H]3O[C@H](CO)[C@@H](O)[C@H](O)[C@@H]3O)[C@@H]2O)[C@@H]1O (some centres unmarked) [Man9GlcNAc2]
UPLC-MS [2]: treatment of Man9GlcNAc2 with SpGH92 produced a glycan having a mass consistent with Man5GlcNAc2

CC(=O)N[C@H]1C(O)O[C@H](CO)[C@@H](O[C@@H]2O[C@H](CO[C@H]3O[C@H](CO[C@H]4O[C@H](CO)[C@@H](O)[C@H](O)[C@@H]4O)[C@@H](O)[C@H](O[C@H]4O[C@H](CO)[C@@H](O)[C@H](O)[C@@H]4O)[C@@H]3O)[C@@H](O)[C@H](O[C@H]3O[C@H](CO)[C@@H](O)[C@H](O)[C@@H]3O)[C@@H]2O)[C@@H]1O (some centres unmarked) [Man5GlcNAc]
Ka [3]: 1.04 (± 0.01)×10^6

CC(=O)N[C@H]1C(O)O[C@H](CO)[C@@H](O[C@@H]2O[C@H](CO)[C@@H](O)[C@H](O)[C@@H]2O)[C@@H]1O (some centres unmarked) [Man1GlcNAc]
Kd [4]: 83.3 µM

B1: SpGH92 (SP_2145), α-(1,2)-mannosidase from Streptococcus pneumoniae TIGR4 (enzyme)
chain: MKPLLETIDTRFGTTNKHAFSRGNTLPYTGVPFGMNYFVPQTSDQDGSWFFDPHLPIFQGIRLTHQPSPWIGDYSWLLLTPVTSQLGGDSLFHRQSSYDIDKACFQPHYLKLFSLRYQIETQLTPTCYGASIRLNQKQGKALSLYLHAADELTVEQVDKRTLALRQEGKTETNKNSLTMFTALQMNTDILAISQEAGDWRIDLASSQTEMQLATSFISPSQALINLPQEDFDSCKSSAQVDWENLLHRFDIIETGEADRTFFDHCLYRLFLFPQTFYEINESGQAIHMDLATGTVKPGVLFSNNGFWDTFRTTFPLFALIIPEHYQRFLEGFLNSYRDTGFLPKWLAPDERGMMPGTLLDGIIADSACKDMTPDLEGELFQAMLETASKADPLGINGRHGLAQYQELGYLSTDHHESVSHTLDYAYSDFCIASCAKKLENIEIAETYKAASQNYRQLFDAETGYMRARDNQGNFHPDFSPYSWGRDYAECSAIQATLGVLHDIPGLIQLMGGKETFSNYLLKACQDAPLFETTGYGYEIHEMSEMATAPFGQIAISNQPSFHIPYLFRYSDYPDYTALLIKTLRQKAFHPSWEAYPGDEDNGSLSAWYIWSALGFYPTCPGKPSYDLGIPLFDHLRVYLAKEDKWLDIHTKQNHNHFNFVKECRLDKTLVSTIQHQDLLKAEQLTFTLSWLPSH
notes: SpGH92, family 92 glycoside hydrolase, S. pneumoniae TIGR4 locus tag SP_2145, amino acids 1-694, cloned in pET28a between NheI and XhoI; Tetramer with D2 symmetry in the crystal and in solution; theoretical molecular weight of the tetramer 325.96 kDa; source: E. coli BL21 Star (DE3), autoinduction, purified (Ni-NTA)
stoichiometry N [5]: 4
